This passage reports inhibition results from ChEMBL document CHEMBL3576844, “Melanin-concentrating hormone receptor 1 antagonists for treatment of obesity” (ACS Med Chem Lett, 2015).

The target in data set [1] is Melanin-concentrating hormone receptor 1 (Homo sapiens) (UniProt Q99705). Briefly: Displacement of [125I]-MCH (4 to 19) from human MCH1 receptor expressed in CHO cell membranes at 0.1 uM after 1 hr by liquid scintillation counting analysis relative to control.
Data set [2] has the same target. Briefly: Antagonist activity at human MCH1 receptor expressed in CHO cell membranes assessed as inhibition of MCH (4 to 19)-stimulated calcium mobilization at 0.1 uM measured every 2 secs by fluorometric analysis relative to control. It counts as functional, cell-based. For orientation: Calcium assays in cells follow changes in intracellular calcium, usually with a dye or a luminescent sensor.

The next data set has as its target hERG (KCNH2) (Homo sapiens, UniProt Q12809). The data set can be described thus: Inhibition of human ERG expressed in CHO cells at 10 uM after 5 mins by IonWorks assay relative to control. The note with it: CHO cells expressing human ERG. Background: In patch-clamp work, channel activity is measured electrically.

Melanin-concentrating hormone receptor 1 (Homo sapiens), sequence (Q99705 whole entry): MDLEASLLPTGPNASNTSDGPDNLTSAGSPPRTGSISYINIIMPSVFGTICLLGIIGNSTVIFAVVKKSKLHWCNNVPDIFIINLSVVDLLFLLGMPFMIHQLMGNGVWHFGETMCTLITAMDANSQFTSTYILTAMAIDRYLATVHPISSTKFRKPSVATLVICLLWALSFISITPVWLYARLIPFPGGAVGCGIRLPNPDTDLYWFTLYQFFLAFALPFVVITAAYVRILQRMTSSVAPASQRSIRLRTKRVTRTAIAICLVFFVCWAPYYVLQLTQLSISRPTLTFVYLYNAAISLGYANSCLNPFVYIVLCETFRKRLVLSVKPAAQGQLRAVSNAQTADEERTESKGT
hERG (KCNH2), sequence (Q12809 whole entry): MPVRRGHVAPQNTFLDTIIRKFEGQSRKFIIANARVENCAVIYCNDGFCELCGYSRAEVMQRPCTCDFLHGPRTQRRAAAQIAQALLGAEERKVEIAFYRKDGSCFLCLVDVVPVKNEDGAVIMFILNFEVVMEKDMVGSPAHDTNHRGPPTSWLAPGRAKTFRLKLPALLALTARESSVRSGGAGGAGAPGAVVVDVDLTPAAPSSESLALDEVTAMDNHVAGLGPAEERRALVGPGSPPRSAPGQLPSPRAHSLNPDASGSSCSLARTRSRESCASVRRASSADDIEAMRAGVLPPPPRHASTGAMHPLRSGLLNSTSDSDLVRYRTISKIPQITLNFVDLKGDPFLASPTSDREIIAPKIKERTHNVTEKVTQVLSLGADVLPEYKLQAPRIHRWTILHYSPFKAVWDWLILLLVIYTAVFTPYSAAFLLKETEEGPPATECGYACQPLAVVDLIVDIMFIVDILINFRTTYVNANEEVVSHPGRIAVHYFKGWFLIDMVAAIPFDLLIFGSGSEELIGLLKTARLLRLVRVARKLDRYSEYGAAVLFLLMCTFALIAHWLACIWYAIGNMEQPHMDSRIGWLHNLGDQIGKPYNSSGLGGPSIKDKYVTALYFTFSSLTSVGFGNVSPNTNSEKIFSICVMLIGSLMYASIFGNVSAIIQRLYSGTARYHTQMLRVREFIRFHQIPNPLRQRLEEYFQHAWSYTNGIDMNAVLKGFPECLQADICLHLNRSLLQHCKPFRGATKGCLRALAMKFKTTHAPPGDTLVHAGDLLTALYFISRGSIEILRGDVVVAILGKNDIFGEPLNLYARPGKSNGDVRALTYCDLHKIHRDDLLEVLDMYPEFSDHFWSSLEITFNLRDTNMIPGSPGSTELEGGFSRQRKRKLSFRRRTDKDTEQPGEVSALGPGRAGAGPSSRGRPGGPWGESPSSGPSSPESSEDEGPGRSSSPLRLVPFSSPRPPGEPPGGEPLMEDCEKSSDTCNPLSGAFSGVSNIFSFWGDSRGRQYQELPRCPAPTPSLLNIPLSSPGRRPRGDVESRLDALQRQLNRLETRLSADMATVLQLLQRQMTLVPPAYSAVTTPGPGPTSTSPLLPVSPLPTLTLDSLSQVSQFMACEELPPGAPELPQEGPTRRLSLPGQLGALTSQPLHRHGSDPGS

As a reminder, the inhibition is the share of the control response that was lost under treatment. With `Cc1c2cc(-n3ccc(OCc4ccc(Cl)cc4)cc3=O)ccc2nn1C`, the inhibition in data set [1] is 72%; in data set [2], 83%. In addition, at hERG (KCNH2), the inhibition at 5 min, 10 µM is 22.1%.

For `Cc1c2cc(-n3ccc(OCc4csc(C(F)(F)F)n4)cc3=O)ccc2nn1C1CC1`, the inhibition in data set [1] was 50%; in data set [2], 78%.

`Cc1c2cc(-n3ccc(OCc4ccc(F)cc4)cc3=O)ccc2nn1C1CC1`: the inhibition in data set [1] came to 72%; in data set [2], 70%.

Turning to `Cc1c2cc(-n3ccc(OCc4csc(C(F)(F)F)c4)cc3=O)ccc2nn1C1CC1`, the inhibition is 77% in data set [1] and 55% in data set [2].
